How the values were obtained:
[1] = system: ulcer found on the duodenum; test: Healing of acetic acid induced duodenal ulcer (Example 10); type: in vivo, male rats; conditions: 20 µg/kg/day oral, 10 days
Experimental: Fourty five male rats of body weight of 240 to 260 g were equally divided into three groups, each consisting of 15 animals, and they were subjected to an operation following the method of Okabe et al. (refer to Amer. J. Dig. Dia., 16, 277, 1971), in which under anesthesia by ether, a circular frame made of a metal was placed on the serosa 5 to 7 mm from the pylorus and 0.06 ml of gracial acetic acid was poured onto the round part within the frame and after 30 sec, the acetic liquid was removed with the frame.
The thus operated rats of the first group were administered orally with a suspension of […] of 24R,25-(OH)2 -D3 in Panacete®810 containing 0.2% by weight of ethanol once a day for continuous 10 days from the third day of the operation at a daily dose rate of 20 micrograms of 24R,25-(OH)2 -D3 /kg. To the thus operated rats of the second group (control), only Panacete®810 was orally administered at a daily dose rate of 2 ml/kg for continuous 10 days.
The thus operated rats of the third group were used in the comparative test. Namely, they were treated in the same manner as those of the first group except for administration of gefarnate (3,7-dimethyl-2,6-octadienyl-5,9,13-trimethyl-4,8,12-tetradecatrienoate) at a daily dose rate of 20 microgram/kg body weight in stead of 24R,25-(OH)2 -D3 in the first group.
After finishing the final administration, all the rats were sacrificed by ether and their duodenum was taken out for autopsy. The length and the width of the ulcer found on the duodenum were measured, and their product with a unit of mm^2 was taken and named as the ulcer coefficient. The rate of healing of the ulcer was calculated by the following formula: [formula] wherein C is the ulcer coefficient of control and U is the ulcer coefficient of the group to which the present compound was administered.

[2] = system: LICR-LON-HMy 2 cells derived from human myeloma; test: Inhibition of proliferation of LICR-LON-HMy 2 cells (Example 25); type: cell-based; conditions: 3 days
Experimental: In a similar manner to Example 24, in vitro proliferated strain of LICR-LON-HMy 2 cells derived from human myeloma were cultured in each one of the same culture mediums as those used in Example 24. After culturing for 3 days, the cultured medium was stained with tripan blue and observed under a microscope to count the number of living cells, the results being shown in Table 19.
In Table 19, the inhibition rate is based on the number of cells in the culture medium added specifically with dimethylsulfoxide as in Example 24.

[3] = Acute oral mammalian toxicity; set-up: species or system male mouse of ICR-strain; conditions: mouse, in vivo, read-out: LD50 (per os)
Experimental: 0.3 ml of ethanolic solution containing 150 mg of 24R,25-(OH)2 -D3 was suspended in 15 ml of Panacete® 810 (triglyceride ester of C8 and C10 -fatty acid, made by Nippon Oil & Fats Co., Ltd.) to obtain a suspension containing 2% by weight of ethanol. The thus prepared composition was orally administered to a group of male mouse of ICR-strain consisting of 10 animals at a dose rate of 150 mg of 24R,25-(OH)2 -D3 per kg.

magnesium level in serum = test: Serum magnesium in hypermagnesemic chronic renal failure patients (Example 17); type: in vivo, human; conditions: for Magnesium level in serum after administration: 10 days; for Magnesium level in serum before administration: baseline
Experimental: To the three patients of chronic renal failure showing the hypermagnesemic symptoms of nearly the same extent to each other, 24R,25-(OH)2 -D3 was orally administered in a form of soft capsule composition prepared in Example 6 at a daily dose of 2 to 5 micrograms for continuous 10 days. Magnesium level in their serum was determined before and after the administration following the ordinary method.

With `C=C1CC[C@H](O)C/C1=C/C=C1\CCC[C@]2(C)[C@@H]([C@H](C)CC[C@@H](O)C(C)(C)O)CC[C@@H]12` [24R,25-(OH)2 -D3] the ulcer coefficient [1] was 1.5 mm^2, the “rate of ulcer healing” value ([1]; vs control) was 80% and the “Number of myeloma cells after culture” value ([2]; 1 microgram/ml) was 8.0 ×10^5 cells/ml. For the same molecule, the “Number of myeloma cells after culture” value ([2]; 10 micrograms/ml) was 0.4 ×10^5 cells/ml, the inhibition at 1 µg/mL ([2]; Homo sapiens, 72 h, 1 microgram/ml, vs dimethylsulfoxide, read-out: Inhibition Rate of the myeloma cells) was 12% and the inhibition at 10 µg/mL ([2]; Homo sapiens, 72 h, 10 micrograms/ml, vs dimethylsulfoxide, read-out: Inhibition Rate of the myeloma cells) was 96%. For the same molecule, the LD50 at 336 h [3] was greater than 150 mg/kg, the “Magnesium level in serum after administration” value (magnesium level in serum; patient A, 5 µg/day) was 2.0 mg/dL and the “Magnesium level in serum before administration” value (magnesium level in serum; patient A) was 4.2 mg/dL. The “Magnesium level in serum after administration” value (magnesium level in serum; patient B, 2 µg/day) was 2.1 mg/dL, the “Magnesium level in serum before administration” value (magnesium level in serum; patient B) was 4.0 mg/dL and the “Magnesium level in serum after administration” value (magnesium level in serum; patient C, 5 µg/day) was 1.9 mg/dL. The “Magnesium level in serum before administration” value (magnesium level in serum; patient C) was 4.3 mg/dL.

Reference: patent publication US4442093A, “Method for administering 24,25-dihydroxycholecalciferol to persons suffering from hypercalcemia” (Kureha Kagaku Kogyo Kabushiki Kaisha, priority 1981, dated 1984)
